The values that follow come from patent US12377111B2, “Composition, comprising thiamine derivative, for prevention or treatment of hypercortisolemia” (KYUNGPOOK NATIONAL UNIVERSITY INDUSTRY-ACADEMIC COOPERATION …, priority 2018, dated 2025).

Like-named read-outs stand apart in the source and are kept apart here.

For assay [1], the system named is NCI-H295R cells. Nature of the assay: Cortisol production in 8-Br-cAMP-stimulated NCI-H295R cells (ELISA). The note with it: for Cortisol production concentration: 0.5 mM 8-Br-cAMP, 12 h pretreatment + 24 h; for Cortisol production concentration / inhibition of cortisol production increased by 0.5 mM 8-Br-cAMP (in words): NCI-H295R; for reduction in cortisol production: compared with non-treatment group (with 8-Br-cAMP treatment); for inhibition of cortisol production increased by 0.5 mM 8-Br-cAMP (in words): 20, 50, 100 μM. It is filed as cell-based, human. How it is done:
Cortisol secretion inhibitory effects by allithiamine (Shanghai iChemical Technology CO., LTD., China), fursultiamine (Toronto Research Chemicals, Canada), or benfotiamine (Sigma-Aldrich, St. Louis, MO, USA), which are thiamine (vitamin B1) based compounds, were tested. For this, cortisol reduction effects in adrenal tumors that excessively secret cortisol were measured.
NCI-H295R (ATCC #CRL-2128) cells, a human adrenocortical carcinoma cell line, were dispensed into 24-well plates at 2.5×10^5 cells/well. Then, the cells were incubated in DMEM/F12 growth media containing 2.5% Nu-serum, 1% ITS (insulin, transferrin, and selenium), bovine serum albumin (BSA), linoleic acid, and penicillin/streptomycin for 48 hours.
Thereafter, the media were exchanged with serum-free media, and then the NCI-H295R cells were pretreated with allithiamine, fursultiamine, or benfotiamine at concentrations of 20 μM, 50 μM, and 100 μM for 12 hours. The cells were treated with 8-bromoadenosine 3′,5′-cyclic monophosphate (8-Br-cAMP) at a concentration of 0.5 mM to increase cortisol synthesis, and again treated with allithiamine, fursultiamine, or benfotiamine at 20 μM, 50 μM, and 100 μM, followed by reaction for 24 hours. After the reaction, cell cultures were collected, and the amount of cortisol produced in the cells was measured using an enzyme-linked immunosorbent assay (ELISA) kit (Enzo Life Sciences, Inc., NY, USA).
In general terms: In an ELISA, binding on a coated surface is turned into a signal by an enzyme label.

The subject of assay [2] is CRH-overexpressed mice. How it is done:
To investigate high-cortisol inhibitory effects, C57BL/6J normal mice (WT-con) aged 8 to 9 weeks and corticotropin-releasing hormone (CRH)-overexpressed mice, which are Cushing's syndrome animal models, were used. One group of CRH-overexpressed mice were orally administered with 60 mg/kg fursultiamine once a day for 9 weeks (CRH tg-Fur 60 mpk).
During this period, the body weight change was monitored by measuring body weights once a week. To check the concentration of corticosterone (in cases of rodents), blood was collected from the tail vein and serum was isolated. The concentration of corticosterone was measured from the isolated serum by using an enzyme-linked immunosorbent assay (ELISA) kit (Enzo Life Sciences, Inc., NY, USA). The fat mass was measured 6 weeks after administration of the drug by using a body composition analyzer (MiniSpec LF 50, Bruker Optics, Germany), and the fat distribution was again monitored with micro CT images 8 weeks after administration.

Assay [3] has as its system 8-week-old male mice. The note with it: for corticosterone concentration: serum, oral 24 h and 2 h before stress. The procedure:
For the restraint stress test, 8-week-old male mice were used, and were orally administered with fursultiamine once 24 hours before and once 2 hours before stress induction. For induction of stress, the mice were individually placed head-first into well-ventilated 50 mL polypropylene tubes, which were then tied with a cap of the 50 mL tube, and the mice were confined for 2 hours. Before stress induction, 1 hour and 2 hours after induction, and at 1 hour of recovery, blood was collected from the tail vein and serum was isolated, and then the concentration of corticosterone was measured using ELISA kit.

As to `CC(=C(CCO)SSCC1CCCO1)N(C=O)Cc1cnc(C)nc1N` (stereo in doubt) [fursultiamine], the Cortisol production concentration in assay [1] (20 μM compound) was found to be 14.1 ng/mL; in assay [1] (50 μM compound), 9.0 ng/mL; in assay [1] (100 μM compound), 7.5 ng/mL. The “reduction in cortisol production” value in assay [1] (50 μM) worked out at 43%; in assay [1] (100 μM), 52.4%. The “inhibition of cortisol production increased by 0.5 mM 8-Br-cAMP (in words)” value in assay [1] is given as “significantly inhibited the cortisol production”. In assay [2] (CRH-overexpressed mice, 60 mg/kg oral), the “corticosterone synthesis concentration (in words)” value is listed as “smaller compared with the normal group”. Further, the “fat mass, Body weight (%)” value in assay [2] (CRH-overexpressed mice, 60 mg/kg oral once a day, 6 weeks after administration, body composition analyzer) amounted to 23.4%. In addition, in assay [2] (CRH-overexpressed mice, 60 mg/kg oral, 9 weeks, vs CRH-overexpressed control), the “increase in body weight (in words)” value is “smaller increase in body weight compared with the control”. Moreover, the “fat mass (in words)” value in assay [2] (CRH-overexpressed mice, 60 mg/kg oral, vs control) was “smaller compared with the control”. In assay [2] (serum, CRH-overexpressed mice, 60 mg/kg oral once a day), this molecule had a Corticosterone of 87.1 ng/mL. Also, the body weight in assay [2] (week 0, CRH-overexpressed mice, 60 mg/kg oral once a day) worked out at 18.4; in assay [2] (week 1, CRH-overexpressed mice, 60 mg/kg oral once a day), 17.8; in assay [2] (week 2, CRH-overexpressed mice, 60 mg/kg oral once a day), 17.8; in assay [2] (week 3, CRH-overexpressed mice, 60 mg/kg oral once a day) it was 18.2; in assay [2] (week 4, CRH-overexpressed mice, 60 mg/kg oral once a day), 18.1; in assay [2] (week 5, CRH-overexpressed mice, 60 mg/kg oral once a day), 18.4. Besides, the body weight in assay [2] (week 6, CRH-overexpressed mice, 60 mg/kg oral once a day) worked out at 17.9; in assay [2] (week 7, CRH-overexpressed mice, 60 mg/kg oral once a day) it was 19.8; in assay [2] (week 8, CRH-overexpressed mice, 60 mg/kg oral once a day) it was 19.7; in assay [2] (week 9, CRH-overexpressed mice, 60 mg/kg oral once a day) it was 19.2. In addition, the “rate of increase in corticosterone level after stress induction (in words)” value in assay [3] (restraint stress, oral administration) is on record as “rate of increase in corticosterone level decreased”. The corticosterone concentration in assay [3] (0 min (before stress induction)) is on record as 63.6; in assay [3] (60 min (1 hour after stress induction)), 260.4; in assay [3] (120 min (2 hours after stress induction)), 261.4; in assay [3] (180 min (1 hour of recovery)), 105.8.

In the case of `C=CCSS/C(CCO)=C(/C)N(C=O)Cc1cnc(C)nc1N` [allithiamine], the Cortisol production concentration is listed as 10.5 ng/mL in assay [1] (20 μM compound), 6.4 ng/mL in assay [1] (50 μM compound) and 2.8 ng/mL in assay [1] (100 μM compound). Further, the “reduction in cortisol production” value came to 50.7% in assay [1] (50 μM) and 78.7% in assay [1] (100 μM). Further, the “inhibition of cortisol production increased by 0.5 mM 8-Br-cAMP (in words)” value in assay [1] is on record as “significantly inhibited the cortisol production”.

As to `C/C(=C(\CCOP(=O)(O)O)SC(=O)c1ccccc1)N(C=O)Cc1cnc(C)nc1N` [benfotiamine], the Cortisol production concentration is 14.0 ng/mL in assay [1] (20 μM compound), 12.0 ng/mL in assay [1] (50 μM compound) and 8.6 ng/mL in assay [1] (100 μM compound). The “reduction in cortisol production” value worked out at 22.6% in assay [1] (50 μM) and 44.3% in assay [1] (100 μM). For the same molecule, the “inhibition of cortisol production increased by 0.5 mM 8-Br-cAMP (in words)” value in assay [1] is “significantly inhibited the cortisol production”.
